Assay results as given in the supplement of paper PMC10307832.

What was measured:
Assay in all cases: relative viability (nuclei count vs DMSO), 5 days (fraction); higher = more cells survive
IPA-3 + Decitabine = compound: C1=CC=C2C(=C1)C=CC(=C2SSC3=C(C=CC4=CC=CC=C43)O)O [IPA-3] + Nc1ncn([C@H]2C[C@H](O)[C@@H](CO)O2)c(=O)n1 [Decitabine] (partner 2 µM)
Summary of the method: (§1)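 Medians of duplicate plates are given as relative viability. That measure is the nuclei count in treated wells divided by the count in vehicle wells. Counts were taken on 4× images of lung cancer cell lines in 1536-well plates, 5 days after pin-tool dosing the day after seeding with one drug alone or a fixed anchor-drug dose plus five library-drug doses (not always all listed) in √10 steps.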

RAF265 + OSI-027 = compound: Cn1c(Nc2ccc(C(F)(F)F)cc2)nc2cc(Oc3ccnc(-c4ncc(C(F)(F)F)[nH]4)c3)ccc21 [RAF265] + COc1cccc2cc(-c3nc([C@H]4CC[C@H](C(=O)O)CC4)n4ncnc(N)c34)[nH]c12 [OSI-027] (partner 0.5 µM)
Summary of the method: as §1

IPA-3 + Palbociclib = compound: C1=CC=C2C(=C1)C=CC(=C2SSC3=C(C=CC4=CC=CC=C43)O)O [IPA-3] + CC(=O)c1c(C)c2cnc(Nc3ccc(N4CCNCC4)cn3)nc2n(C2CCCC2)c1=O [Palbociclib] (partner 0.5 µM)
Summary of the method: as §1

IPA-3 + Lapatinib = compound: C1=CC=C2C(=C1)C=CC(=C2SSC3=C(C=CC4=CC=CC=C43)O)O [IPA-3] + CS(=O)(=O)CCNCc1ccc(-c2ccc3ncnc(Nc4ccc(OCc5cccc(F)c5)c(Cl)c4)c3c2)o1 [Lapatinib] (partner 2 µM)
Summary of the method: as §1

With UMC-11 the relative viability (IPA-3 + Decitabine; first compound 0.2 µM) was 0.682, the relative viability (IPA-3 + Decitabine; first compound 0.6325 µM) was 0.759 and the relative viability (IPA-3 + Decitabine; first compound 2 µM) was 0.568. For the same cell line, the relative viability (IPA-3 + Decitabine; first compound 6.325 µM) was 0.362, the relative viability (IPA-3 + Decitabine; first compound 20 µM) was 0.594 and the relative viability (RAF265 + OSI-027; first compound 0.01 µM) was 0.491. It also gave a relative viability (RAF265 + OSI-027; first compound 0.03162 µM) of 0.48, a relative viability (RAF265 + OSI-027; first compound 0.1 µM) of 0.464 and a relative viability (RAF265 + OSI-027; first compound 0.3162 µM) of 0.457. For the same cell line, the relative viability (RAF265 + OSI-027; first compound 1 µM) was 0.378, the relative viability (IPA-3 + Palbociclib; first compound 0.2 µM) was 0.323 and the relative viability (IPA-3 + Palbociclib; first compound 0.6325 µM) was 0.333. For the same cell line, the relative viability (IPA-3 + Palbociclib; first compound 2 µM) was 0.312, the relative viability (IPA-3 + Palbociclib; first compound 6.325 µM) was 0.328 and the relative viability (IPA-3 + Palbociclib; first compound 20 µM) was 0.337. The relative viability (IPA-3 + Lapatinib; first compound 0.2 µM) was 0.944, the relative viability (IPA-3 + Lapatinib; first compound 0.6325 µM) was 1.1 and the relative viability (IPA-3 + Lapatinib; first compound 2 µM) was 0.956. For the same cell line, the relative viability (IPA-3 + Lapatinib; first compound 6.325 µM) was 0.804 and the relative viability (IPA-3 + Lapatinib; first compound 20 µM) was 1.06.
